The text below walks through data of ChEMBL document CHEMBL3871284, “Structure-activity relationship-based screening of antibiotics against Gram-negative Acinetobacter baumannii” (Bioorg Med Chem, 2017).

Converted amounts (≈) assume the structure as drawn. Bounds are passed on as bounds.

By MIC is commonly meant the lowest concentration found to suppress growth. Lower therefore signals a more susceptible organism. Usually Kd stands for the constant that tells how readily two partners part at equilibrium. Read a high Kd as weaker binding.

For test [1], the system named is Acinetobacter baumannii. The experiment in a line: Antimicrobial activity against Acinetobacter baumannii KCTC 2508 after 16 hrs by broth microdilution assay. Type of test: functional. The conditions noted are these: KCTC 2508, 16 h.
Test [2] is described as follows: Binding affinity to Acinetobacter baumannii His-tagged KAS3 expressed in Escherichia coli BL21(DE3) by tryptophan emission assay.
In test [3] the test system is Staphylococcus aureus. The experiment in a line: Antimicrobial activity against Methicillin-resistant Staphylococcus aureus 3126 after 16 hrs by broth microdilution assay. It counts as functional. The conditions noted are these: Staphylococcus aureus, 3126, 16 h. A general note: In broth dilution the organism is exposed to a series of concentrations in liquid medium.

In test [4] the test system is Pseudomonas aeruginosa. The experiment in a line: Antimicrobial activity against multidrug resistant Pseudomonas aeruginosa CCARM 2002 after 16 hrs by broth microdilution assay. The conditions noted are these: CCARM 2002, 16 h. Type of test: functional.
For the next test, the system named is Bacillus subtilis. The experiment in a line: Antimicrobial activity against Bacillus subtilis after 16 hrs by broth microdilution assay. It counts as functional.
Test [5] has as its system Acinetobacter baumannii. The experiment in a line: Antimicrobial activity against multidrug resistant Acinetobacter baumannii CCARM 12037 after 16 hrs by broth microdilution assay. Type of test: functional. The conditions noted are these: CCARM 12037, 16 h.
Test [6] has as its system Staphylococcus aureus. The experiment in a line: Antimicrobial activity against Staphylococcus aureus after 16 hrs by broth microdilution assay. Type of test: functional.
In test [7] the test system is Staphylococcus epidermidis. The experiment in a line: Antimicrobial activity against Staphylococcus epidermidis after 16 hrs by broth microdilution assay. Type of test: functional.
In test [8] the test system is Acinetobacter baumannii. The experiment in a line: Antimicrobial activity against multidrug resistant Acinetobacter baumannii CCARM 12035 after 16 hrs by broth microdilution assay. Type of test: functional. The conditions noted are these: CCARM 12035, 16 h.
For test [9], the system named is Acinetobacter baumannii. The experiment in a line: Antimicrobial activity against multidrug resistant Acinetobacter baumannii CCARM 12036 after 16 hrs by broth microdilution assay. Type of test: functional. The conditions noted are these: CCARM 12036, 16 h.
The subject of test [10] is Escherichia coli. The experiment in a line: Antimicrobial activity against multidrug resistant Escherichia coli CCARM 1229 after 16 hrs by broth microdilution assay. Type of test: functional. The conditions noted are these: CCARM 1229, 16 h.
Test [11] concerns Pseudomonas aeruginosa. The experiment in a line: Antimicrobial activity against multidrug resistant Pseudomonas aeruginosa CCARM 2095 after 16 hrs by broth microdilution assay. Type of test: functional. The conditions noted are these: CCARM 2095, 16 h.
The test system of test [12] is Staphylococcus aureus. The experiment in a line: Antimicrobial activity against Methicillin-resistant Staphylococcus aureus isolate 3114 after 16 hrs by broth microdilution assay. Type of test: functional. The conditions noted are these: isolate 3114, 16 h.
The subject of test [13] is Acinetobacter baumannii. The experiment in a line: Antimicrobial activity against multidrug resistant Acinetobacter baumannii CCARM 12005 after 16 hrs by broth microdilution assay. Type of test: functional. The conditions noted are these: CCARM 12005, 16 h.
Test [14] concerns Pseudomonas aeruginosa. The experiment in a line: Antimicrobial activity against multidrug resistant Pseudomonas aeruginosa CCARM 2163 after 16 hrs by broth microdilution assay. It counts as functional. The conditions noted are these: CCARM 2163, 16 h.
The test system of test [15] is Escherichia coli. The experiment in a line: Antimicrobial activity against Escherichia coli KCTC 1682 after 16 hrs by broth microdilution assay. It counts as functional. The conditions noted are these: KCTC 1682, 16 h.
In test [16] the test system is Pseudomonas aeruginosa. The experiment in a line: Antimicrobial activity against Pseudomonas aeruginosa KCTC 1637 after 16 hrs by broth microdilution assay. It counts as functional. The conditions noted are these: KCTC 1637, 16 h.
The test system of test [17] is Escherichia coli. The experiment in a line: Antimicrobial activity against multidrug resistant Escherichia coli CCARM 1238 after 16 hrs by broth microdilution assay. Type of test: functional. The conditions noted are these: CCARM 1238, 16 h.

Consider `CCCOc1ccc(/C=N/NCc2ccc3ccccc3c2)c(O)c1`, for which the MIC against Acinetobacter baumannii [1], against Staphylococcus aureus [3], against Pseudomonas aeruginosa [4], in the test on Bacillus subtilis, in the test on Acinetobacter baumannii [5] and against Staphylococcus aureus [6] was more than 32 µg/mL in each case. For the same compound, the minimal inhibitory concentration (MIC) (in test [7]; in the test with Acinetobacter baumannii [8]; against Acinetobacter baumannii [9]; in the test on Escherichia coli [10]; against Pseudomonas aeruginosa [11]; in the test on Staphylococcus aureus [12]) was more than 32 µg/mL throughout. In addition, the MIC in the test with Acinetobacter baumannii [13], against Pseudomonas aeruginosa [14], against Escherichia coli [15], in the test with Pseudomonas aeruginosa [16] and with Escherichia coli [17] was more than 32 µg/mL each time. Further, the dissociation constant Kd in test [2] was determined as 21.7 µM.

As to `CCCOc1ccc(/C=N/NCc2ccc(C(F)(F)F)cc2)c(O)c1`, the MIC against Acinetobacter baumannii [1], with Staphylococcus aureus [3], in the test with Pseudomonas aeruginosa [4], against Bacillus subtilis, against Acinetobacter baumannii [5] and in the test on Staphylococcus aureus [6] was more than 32 µg/mL in each case. Besides, the MIC (in [7]; against Acinetobacter baumannii [8]; against Acinetobacter baumannii [9]; in the test with Escherichia coli [10]; against Pseudomonas aeruginosa [11]; with Staphylococcus aureus [12]) was more than 32 µg/mL each time. The minimal inhibitory concentration (MIC) in the test with Acinetobacter baumannii [13], against Pseudomonas aeruginosa [14], against Escherichia coli [15], with Pseudomonas aeruginosa [16] and against Escherichia coli [17] was more than 32 µg/mL throughout. The same compound registered a Kd in test [2] of 28.8 µM.

On to `COc1ccc(/C=N/NCc2ccc(C)cc2)c(O)c1`, for which the MIC in the test on Acinetobacter baumannii [1], against Staphylococcus aureus [3], in the test with Pseudomonas aeruginosa [4], against Bacillus subtilis, against Acinetobacter baumannii [5] and in the test on Staphylococcus aureus [6] was more than 32 µg/mL each time. The MIC (in test [7]; with Acinetobacter baumannii [8]; with Acinetobacter baumannii [9]; against Escherichia coli [10]; in the test on Pseudomonas aeruginosa [11]; with Staphylococcus aureus [12]) was more than 32 µg/mL in each case. Moreover, the minimal inhibitory concentration (MIC) against Acinetobacter baumannii [13], against Pseudomonas aeruginosa [14], with Escherichia coli [15], with Pseudomonas aeruginosa [16] and in the test on Escherichia coli [17] was more than 32 µg/mL throughout. Moreover, the equilibrium dissociation constant (Kd) in [2] is more than 100 µM.

`COc1ccccc1/C=N/NCc1ccc(C(=O)O)cc1`: the MIC in the test on Acinetobacter baumannii [1], with Staphylococcus aureus [3], in the test with Pseudomonas aeruginosa [4], in the test with Bacillus subtilis, in the test on Acinetobacter baumannii [5] and in the test on Staphylococcus aureus [6] was more than 32 µg/mL in each case. Moreover, the MIC (in test [7]; against Acinetobacter baumannii [8]; against Acinetobacter baumannii [9]; against Escherichia coli [10]; against Pseudomonas aeruginosa [11]; against Staphylococcus aureus [12]) was more than 32 µg/mL throughout. Further, the MIC against Acinetobacter baumannii [13], against Pseudomonas aeruginosa [14], against Escherichia coli [15], against Pseudomonas aeruginosa [16] and in the test on Escherichia coli [17] was more than 32 µg/mL in each case. The compound also registered an equilibrium dissociation constant (Kd) in [2] of 20.2 µM.

For the compound `COc1ccc(O)c(/C=N/NCc2cccc(C(F)(F)F)c2)c1`, the minimum inhibitory concentration (MIC) against Acinetobacter baumannii [1], against Staphylococcus aureus [3], against Pseudomonas aeruginosa [4], in the test with Bacillus subtilis, against Acinetobacter baumannii [5] and in the test with Staphylococcus aureus [6] was more than 32 µg/mL throughout. The minimal inhibitory concentration (MIC) (in [7]; in the test with Acinetobacter baumannii [8]; against Acinetobacter baumannii [9]; in the test on Escherichia coli [10]; with Pseudomonas aeruginosa [11]; in the test with Staphylococcus aureus [12]) was more than 32 µg/mL throughout. In addition, the MIC against Acinetobacter baumannii [13], in the test with Pseudomonas aeruginosa [14], in the test with Escherichia coli [15], against Pseudomonas aeruginosa [16] and in the test on Escherichia coli [17] was more than 32 µg/mL throughout. Also, in [2], the Kd is more than 100 µM.

For the compound `CCOc1ccc(/C=N/NCc2ccc(Cl)c(Cl)c2)c(O)c1`, the MIC with Acinetobacter baumannii [1], with Staphylococcus aureus [3], in the test on Pseudomonas aeruginosa [4], in the test with Bacillus subtilis, with Acinetobacter baumannii [5] and in the test with Staphylococcus aureus [6] was more than 32 µg/mL in each case. Moreover, the minimum inhibitory concentration (MIC) (in [7]; against Acinetobacter baumannii [8]; against Acinetobacter baumannii [9]; in the test with Escherichia coli [10]; against Pseudomonas aeruginosa [11]; against Staphylococcus aureus [12]) was more than 32 µg/mL each time. Also, the minimum inhibitory concentration (MIC) against Acinetobacter baumannii [13], against Pseudomonas aeruginosa [14], in the test on Escherichia coli [15], with Pseudomonas aeruginosa [16] and against Escherichia coli [17] was more than 32 µg/mL throughout. The compound also gave an equilibrium dissociation constant (Kd) in [2] of more than 100 µM.

As for `Oc1cccc(Br)c1/C=N/NCc1cccc(C(F)(F)F)c1`, the MIC in the test with Acinetobacter baumannii [1], against Staphylococcus aureus [3], in the test with Pseudomonas aeruginosa [4], with Bacillus subtilis, against Acinetobacter baumannii [5] and with Staphylococcus aureus [6] was more than 32 µg/mL in each case. The minimum inhibitory concentration (MIC) (in test [7]; against Acinetobacter baumannii [8]; in the test on Acinetobacter baumannii [9]; in the test on Escherichia coli [10]; with Pseudomonas aeruginosa [11]; in the test with Staphylococcus aureus [12]) was more than 32 µg/mL in each case. In addition, the MIC against Acinetobacter baumannii [13], in the test with Pseudomonas aeruginosa [14], against Escherichia coli [15], with Pseudomonas aeruginosa [16] and against Escherichia coli [17] was more than 32 µg/mL each time. The compound further gave a Kd in [2] of more than 100 µM.

Take `COc1ccc(/C=N/NCc2ccc(C(F)(F)F)cc2)c(O)c1`: the MIC against Acinetobacter baumannii [1], in the test with Staphylococcus aureus [3], against Pseudomonas aeruginosa [4], in the test with Bacillus subtilis, with Acinetobacter baumannii [5] and against Staphylococcus aureus [6] was more than 32 µg/mL throughout. The minimum inhibitory concentration (MIC) (in [7]; in the test with Acinetobacter baumannii [8]; with Acinetobacter baumannii [9]; in the test on Escherichia coli [10]; with Pseudomonas aeruginosa [11]; with Staphylococcus aureus [12]) was more than 32 µg/mL throughout. Besides, the minimum inhibitory concentration (MIC) in the test on Acinetobacter baumannii [13], in the test on Pseudomonas aeruginosa [14], against Escherichia coli [15], in the test on Pseudomonas aeruginosa [16] and in the test with Escherichia coli [17] was more than 32 µg/mL in each case. Besides, binding in test [2] was put at a Kd of 22 µM.

Consider `Oc1ccc(/C=N/NCc2ccc(C(F)(F)F)cc2)c(O)c1`, for which the minimum inhibitory concentration (MIC) with Acinetobacter baumannii [1] was 16 µg/mL (≈ 51.6 µM); with Staphylococcus aureus [3], 8 µg/mL (≈ 25.8 µM); in the test on Pseudomonas aeruginosa [4], more than 32 µg/mL; against Bacillus subtilis, 4 µg/mL (≈ 12.9 µM); against Acinetobacter baumannii [5], 16 µg/mL (≈ 51.6 µM); in the test with Staphylococcus aureus [6] it was 2 µg/mL (≈ 6.45 µM). The minimal inhibitory concentration (MIC) in test [7] is 16 µg/mL (≈ 51.6 µM); in the test on Acinetobacter baumannii [8], 16 µg/mL (≈ 51.6 µM); against Acinetobacter baumannii [9], 16 µg/mL (≈ 51.6 µM); against Escherichia coli [10], more than 32 µg/mL; against Pseudomonas aeruginosa [11] it was more than 32 µg/mL; with Staphylococcus aureus [12] it was 4 µg/mL (≈ 12.9 µM). The minimal inhibitory concentration (MIC) with Acinetobacter baumannii [13] was 8 µg/mL (≈ 25.8 µM); against Pseudomonas aeruginosa [14], more than 32 µg/mL; with Escherichia coli [15], more than 32 µg/mL; in the test with Pseudomonas aeruginosa [16], more than 32 µg/mL; against Escherichia coli [17], more than 32 µg/mL. The compound further gave a dissociation constant (Kd) in test [2] of 0.596 µM.

For the compound `COc1ccc(/C=N/NCc2ccc(C(=O)O)cc2)c(OC)c1`, the MIC against Acinetobacter baumannii [1], against Staphylococcus aureus [3], with Pseudomonas aeruginosa [4], in the test on Bacillus subtilis, in the test with Acinetobacter baumannii [5] and against Staphylococcus aureus [6] was more than 32 µg/mL throughout. For the same compound, the minimum inhibitory concentration (MIC) (in test [7]; against Acinetobacter baumannii [8]; in the test with Acinetobacter baumannii [9]; with Escherichia coli [10]; in the test with Pseudomonas aeruginosa [11]; against Staphylococcus aureus [12]) was more than 32 µg/mL in each case. The minimal inhibitory concentration (MIC) in the test with Acinetobacter baumannii [13], in the test on Pseudomonas aeruginosa [14], against Escherichia coli [15], in the test on Pseudomonas aeruginosa [16] and against Escherichia coli [17] was more than 32 µg/mL each time. In [2], this compound returned a dissociation constant Kd of 72.5 µM.
